Test results as given in patent US12502386B2, “Nitrogen-containing heterocyclic compound and use thereof” (SHANGHAI SHIJIANG BIOTECHNOLOGY CO., LTD, priority 2022, dated 2025).

Columns and labels:
Con-NCI-H82 cell = assay: CellTiter-Glo cell viability, Con-NCI-H82 cell (empty-vector control); assay type: cell-based, human; conditions: Homo sapiens, NCI-H82, NCI-H82 transfected with empty virus vector (control), intracellular ATP, read-out: inhibitory effect on Con-NCI-H82 (IC50)
ov-NNMT NCI-H82 cell = assay: CellTiter-Glo cell viability, ov-NNMT NCI-H82 cell (NNMT overexpressed); assay type: cell-based, human; conditions: Homo sapiens, NCI-H82, NCI-H82 overexpressing NNMT protein, intracellular ATP, read-out: inhibitory effect on OV-NNMT NCI-H82 (IC50)
sh-DNMT1 NCI-H82 cell = assay: CellTiter-Glo cell viability, sh-DNMT1 NCI-H82 cell (DNMT1 knocked down); assay type: cell-based, human; conditions: Homo sapiens, NCI-H82, NCI-H82 with DNMT1 knocked down by shRNA, intracellular ATP, read-out: inhibitory effect on sh-DNMT1 NCI-H82 (IC50)
NCI-H82 = assay: CellTiter-Glo cell viability, tumor cell line NCI-H82; assay type: cell-based; conditions: NCI-H82, 72 h; human small cell lung cancer cell; 3 days of culture; read-out: inhibitory effect on NCI-H82 (IC50)
Experimental: (§1) Cell viability was detected using the Promega CellTiter-Glo kit, cell viability was determined by directly measuring intracellular ATP content. In the experiment, the IC50 value of the compounds prepared in the Examples of the present invention on various tumor cell lines was detected.
(§2) Each tumor cell was cultured in relevant medium. After cell passage, the gradient diluted compounds prepared in the Examples of the present invention was added. After 3 days of culture, the relevant IC50 (50% inhibiting concentration) was measured. The name, source and culture conditions of each tumor cell line were as follows:
Cell line NCI-H82 (ATCC, No. HTB-175) was cultured in 10% fetal bovine serum-containing RPMI1640 medium (+P/S).

G-401 = assay: CellTiter-Glo cell viability, tumor cell line G-401; assay type: cell-based; conditions: G-401, 72 h; human renal carcinoma Wilms cell; 3 days of culture; read-out: inhibitory effect on G-401 (IC50)
Experimental: as §1, §2
Cell line G-401 (ATCC, No. CRL-1441) was cultured in 10% fetal bovine serum-containing McCoy's 5a medium (+P/S).

MDA-MB-453 = assay: CellTiter-Glo cell viability, tumor cell line MDA-MB-453; assay type: cell-based; conditions: Homo sapiens, MDA-MB-453, 72 h; breast cancer cell; 3 days of culture; read-out: inhibitory effect on MDA-MB-453 (IC50)
Experimental: as §1
(§3) Each tumor cell was cultured in relevant medium. After cell passage, the gradient diluted compounds prepared in the Examples of the present invention was added. After 3 days of culture, the relevant IC50 (50% inhibiting concentration) was measured. The name, source and culture conditions of each tumor cell line were as follows: […]

SW48 = assay: CellTiter-Glo cell viability, tumor cell line SW48; assay type: cell-based; conditions: SW48, 72 h; human colon adenocarcinoma cell; 3 days of culture; read-out: inhibitory effect on SW48 (IC50)
Experimental: as §1, §2
Cell line SW48 (ATCC, No. CCL-231) was cultured in 10% fetal bovine serum-containing Leibovitz's L-15 medium (+P/S).

CFPAC-1 = assay: CellTiter-Glo cell viability, tumor cell line CFPAC-1; assay type: cell-based; conditions: CFPAC-1, 72 h; human pancreatic cancer cell; 3 days of culture; read-out: inhibitory effect on CFPAC-1 (IC50)
Experimental: as §1, §2
Cell line CFPAC-1 (ATCC, No. CRL-1918) was cultured in 10% fetal bovine serum-containing IMDM medium (+P/S).

786-O = assay: CellTiter-Glo cell viability, tumor cell line 786-O; assay type: cell-based; conditions: Homo sapiens, 786-0, 72 h; clear cell renal cell adenocarcinoma cell; 3 days of culture; read-out: inhibitory effect on 786-O (IC50)
Experimental: as §1, §2
Cell line 786-0 (ATCC, No. CRL-1932) was cultured in 10% fetal bovine serum-containing RPMI164B medium (+P/S).

GB-1 = assay: CellTiter-Glo cell viability, tumor cell line GB-1; assay type: cell-based; conditions: GB-1, 72 h; human brain glioblastoma cell; 3 days of culture; read-out: inhibitory effect on GB-1 (IC50)
Experimental: as §1, §2
Cell line GB-1 (JCRB, No. IFO50489) was cultured in 10% fetal bovine serum-containing DMEM medium (+P/S).
(§4) Cell viability was detected using the Promega CellTiter-Glo kit, cell viability was determined by directly measuring intracellular ATP content. In the experiment, the IC50 value of the compounds prepared in the Examples of the present invention on various brain tumor cell lines was detected.

SF-126 = assay: CellTiter-Glo cell viability, tumor cell line SF-126; assay type: cell-based; conditions: SF-126, 72 h, read-out: inhibitory effect on SF-126 (IC50); human glioblastoma multiforme cell; 3 days of culture
Experimental: as §1, §2
Cell line SF126 (JCRB, No. IFO50286) was cultured in 10% fetal bovine serum-containing EMEM medium (+P/S).
as §4

D341 Med = assay: CellTiter-Glo cell viability, brain tumor cell line D341 Med; assay type: cell-based; conditions: Homo sapiens, 72 h, cerebellar medulloblastoma cell, 3 days of culture, read-out: inhibitory effect on D341 Med (IC50)
Experimental: as §4, §2
Cell line D341 Med (ATCC, No. HTB-187) was cultured in 20% fetal bovine serum-containing EMEM medium (+P/S).

Kelly = assay: CellTiter-Glo cell viability, brain tumor cell line Kelly; assay type: cell-based; conditions: Homo sapiens, 72 h, brain neuroblastoma cell, 3 days of culture, read-out: inhibitory effect on Kelly (IC50)
Experimental: as §4, §2
Cell line Kelly (ECACC, No. 92110411) was cultured in 10% fetal bovine serum and 2 mM glutamine-containing RPMI1640 medium.

NB-1 = assay: CellTiter-Glo cell viability, brain tumor cell line NB-1; assay type: cell-based; conditions: Homo sapiens, NB1, 72 h; brain neuroblastoma cell; 3 days of culture; read-out: inhibitory effect on NB-1 (IC50)
Experimental: as §4, §3

Structure (SMILES) | IC50 (Con-NCI-H82 cell) [µM] | IC50 (ov-NNMT NCI-H82 cell) [µM] | IC50 (sh-DNMT1 NCI-H82 cell) [µM] | IC50 (NCI-H82) [µM] | IC50 (G-401) [µM] | IC50 (MDA-MB-453) [µM] | IC50 (SW48) [µM] | IC50 (CFPAC-1) [µM] | IC50 (786-O) [µM] | IC50 (GB-1) [µM] | IC50 (SF-126) [µM] | IC50 (D341 Med) [µM] | IC50 (Kelly) [µM] | IC50 (NB-1) [µM]
COc1ccc2c(c1OCCCBr)C(C1CCCC1)N1CCc3cc4c(cc3C1=C2)OCO4 (centres unmarked) [AB35430] | 0.85 | 3.18 | 6.32 | 0.85 | 1.32 | 0.96 | 1.56 | 12.1 | 16.1 | 16.9 | 23.4 | 1.32 | 2.01 | 2.55
C1=C2c3cc4c(cc3CCN2C(C2CCCC2)c2c1ccc1c2OCO1)OCO4 (centres unmarked) [AB36423] | 1.85 | 5.11 | 4.98 | 1.85 | 2.32 | 1.66 | 2.54 | 14.3 | 22.3 | 16.1 | > 30 | 1.55 | 3.12 | 2.98
[2H]C1c2c(ccc(OC)c2OCCC)C=C2c3cc4c(cc3CCN21)OCO4 (centres unmarked) [AB36437] | 0.65 | 2.73 | 3.12 | 0.65 | 0.98 | 1.34 | 2.55 | 14.4 | 20.2 | 19.9 | 16.8 | 2.12 | 1.89 | 2.58
COc1ccc2c(c1OCCCCN)C(C)N1CCc3cc4c(cc3C1=C2)OCO4 (centres unmarked) [AB35429] | 1.89 | 5.32 | 5.04 | 1.89 | 2.02 | 2.43 | 1.46 | 13.4 | 12.5 | 18.4 | 15.3 | 2.02 | 3.16 | 3.45
COc1ccc2c(c1OCCCCl)C(C(Cl)(Cl)Cl)N1CCc3cc4c(cc3C1=C2)OCO4 (centres unmarked) [AB35441] | 1.01 | 3.21 | 2.98 | 1.01 | 1.56 | 0.98 | 1.22 | 12.3 | 16.5 | 24.4 | > 30 | 2.32 | 3.16 | 1.98
COc1ccc2c(c1OC)C(C(Cl)(Cl)Cl)N1CCc3cc4c(cc3C1=C2CCCc1ccccc1)OCO4 (centres unmarked) [AB35417] | 0.57 | 1.78 | 3.12 | 0.57 | 1.11 | 1.32 | 0.98 | 9.88 | 10.2 | 14.1 | 12.3 | 0.88 | 1.24 | 2.39
COc1ccc2c(c1OCCCF)CN1CCc3cc4c(cc3C1=C2)OCO4 [AB35590] | 1.52 | 4.68 | 4.04 | 1.52 | 2.66 | 1.98 | 2.15 | 15.3 | 13.9 | 22.5 | 17.7 | 2.78 | 3.16 | 1.99
COc1ccc2c(c1OC)C(C1CCCC1)N1CCc3cc4c(cc3C1=C2CCCc1ccccc1)OCO4 (centres unmarked) [AB35436] | 1.27 | 3.28 | 5.32 | 1.27 | 1.89 | 1.01 | 1.56 | 11.4 | 15.4 | > 30 | 22.1 | 1.54 | 3.12 | 2.98
[2H]C([2H])([2H])Oc1c(OC)ccc2c1C(C1CCCC1)N1CCc3cc4c(cc3C1=C2)OCO4 (centres unmarked) [AB36501] | 0.97 | 4.33 | 5.12 | 0.97 | 0.88 | 1.32 | 1.16 | 9.88 | 13.1 | 13.3 | 15.5 | 0.76 | 1.38 | 2.06
CCCC1=C2c3cc4c(cc3CCN2C(C2CCCC2)c2c1ccc(OC)c2OC)OCO4 (centres unmarked) [AB35504] | 2.22 | 4.96 | 6.76 | 2.22 | 3.12 | 1.96 | 3.56 | 25.6 | 20.4 | > 30 | > 30 | 1.58 | 3.03 | 3.58
